By melting point is commonly meant the temperature of the solid-liquid transition.

In patent US7662825B2, “N-pyrazinyl-phenylsulphonamides and their use in the treatment of chemokine mediated diseases” (AstraZeneca AB, priority 2002, dated 2010) one finds melting point data, which are given here for 29 compounds.

The compound `COC(=O)c1cnc(NS(=O)(=O)c2cccc(Cl)c2Cl)c(OC)n1` [Example 113, 5-(2,3-Dichlorobenzenesuphonylamino)-6-methoxypyrazine-2-carboxylic acid, methyl ester] yielded a melting point of 120 to 121 °C.

For `COc1nc(C(C)(C)O)cnc1NS(=O)(=O)c1cccc(Cl)c1Cl` [Example 114, 2,3-Dichloro-N-[5-(1-hydroxy-1-methylethyl)-3-methoxy-2-pyrazinyl]benzenesulphonamide], the melting point lay within 192 to 193 °C.

As to `COc1nc(OCCN)cnc1NS(=O)(=O)c1cccc(Cl)c1Cl` [Example 115, N-[5-(2-Aminoethoxy)-3-methoxy-2-pyrazinyl]-2,3-dichlorobenzenesulphonamide], the melting point lay within 200 to 205 °C.

With `COc1nc(SCCN)c(Cl)nc1NS(=O)(=O)c1cccc(Cl)c1Cl` [Example 116, N-{5-[(2-Aminoethyl)thio]-6-chloro-3-methoxy-2-pyrazinyl}-2,3-dichlorobenzenesulfonamide], the melting point was 185 to 190 °C.

`COC(=O)CCSc1cnc(NS(=O)(=O)c2cccc(Cl)c2Cl)c(OC)n1` [Example 117] had a melting point of 146 to 148 °C.

Take `COc1nc(Br)c(C)nc1NS(=O)(=O)c1cccc(Cl)c1Cl` [Example 118, 2,3-Dichloro-N-[5-bromo-3-methoxy-6-methyl-2-pyrazinyl)benzenesulphonamide]: the melting point was 146 to 148 °C.

`COc1nc(CO)c(C)nc1NS(=O)(=O)c1cccc(Cl)c1Cl` [Example 120, 2,3-Dichloro-N-[5-(hydroxymethyl)-3-methoxy-6-methyl-2-pyrazinyl)benzenesulphonamide] gave a melting point of 175 to 177 °C.

For the compound `COc1nc(Cl)cnc1NS(=O)(=O)c1cccc(Cl)c1F` [Example 122, 3-Chloro-N-(5-chloro-3-methoxy-2-pyrazinyl)-2-fluorobenzenesulphonamide], the melting point fell in the range of 156 to 157 °C.

`COC(=O)c1nccnc1NS(=O)(=O)c1cccc(Cl)c1Cl` [Example 124, 3-{[(2,3-Dichlorophenyl)sulphonyl]amino}pyrazine-2-carboxylic acid, methyl ester] displayed a melting point of 177 to 178 °C.

With `COc1nc(Br)c(Cl)nc1NS(=O)(=O)c1cccc(Cl)c1Cl` [Example 125, N-(5-Bromo-6-chloro-3-methoxy-2-pyrazinyl)-2,3-dichlorobenzenesulphonamide], the melting point fell in the range of 177 to 178 °C.

Turning to `COC(=O)c1nc(OC)c(NS(=O)(=O)c2cccc(Cl)c2Cl)nc1Cl` [Example 126, 3-Chloro-5-{[(2,3-dichlorophenyl)sulphonyl]amino}-6-methoxypyrazine-2-carboxylic acid, methyl ester], the melting point was 200 to 201 °C.

Compound `COc1nc(CO)c(Cl)nc1NS(=O)(=O)c1cccc(Cl)c1Cl` [Example 127, 2,3-Dichloro-N-[6-chloro-5-(hydroxymethyl)-3-methoxypyrazin-2-yl]benzenesulphonamide] returned a melting point of 145 to 147 °C.

`COc1ccc(COc2nccnc2NS(=O)(=O)c2cccc(Cl)c2Cl)cn1` [Example 128, 2,3-Dichloro-N-{3-[(6-methoxy-3-pyridinyl)methoxy]-2-pyrazinyl}benzenesulphonamide] had a melting point of 187 to 188 °C.

Regarding `COCc1nc(OC)c(NS(=O)(=O)c2cccc(Cl)c2Cl)nc1Cl` [Example 129, 2,3-Dichloro-N-[6-chloro-3-methoxy-5-(methoxymethyl)-2-pyrazinyl]benzenesulphonamide], the melting point lay within 193 to 196 °C.

As for `COc1nc(Cl)cnc1NS(=O)(=O)c1cccc(F)c1Cl` [Example 130, 2-Chloro-N-(5-chloro-3-methoxy-2-pyrazinyl)-3-fluorobenzenesulphonamide], the melting point lay in the range of 159 to 159.5 °C.

For the compound `COc1nccnc1NS(=O)(=O)c1cccc(F)c1Cl` [Example 131, 2-Chloro-3-fluoro-N-(3-methoxy-2-pyrazinyl)benzenesulphonamide], the melting point lay in the range of 144 to 145 °C.

`COc1cccc(S(=O)(=O)Nc2nccnc2OC)c1Cl` [Example 132, 2-Chloro-3-methoxy-N-(3-methoxy-2-pyrazinyl)benzenesulphonamide] displayed a melting point of 151 to 152 °C.

In turn, `O=S(=O)(Nc1ncc(Br)nc1OC[C@@H]1CCCN1)c1cccc(Cl)c1Cl` [Example 133, N-[5-Bromo-3-[(2S)-2-pyrrolidinylmethoxy]-2-pyrazinyl]-2,3-dichlorobenzenesulphonamide] returned a melting point of 199 to 200 °C.

With `COC(=O)c1cnc(NS(=O)(=O)c2cccc(Cl)c2Cl)c(OCc2cccnc2)n1` [Example 134, 5-(2,3-Dichlorobenzenesulphonylamino)-6-(3-pyridinylmethoxy)pyrazine-2-carboxylic acid, methyl ester], the melting point lay within 209 to 210 °C.

Compound `NC(=O)c1cnc(NS(=O)(=O)c2cccc(Cl)c2Cl)c(OCc2cccnc2)n1` [Example 135, 5-{[(2,3-Dichlorophenyl)sulphonyl]amino}-6-(3-pyridinylmethoxy)-2-pyrazinecarboxamide] gave a melting point of 174 to 178 °C.

Regarding `O=S(=O)(Nc1ncc(-c2ccncc2)nc1OCc1cccnc1)c1cccc(Cl)c1Cl` [Example 136, 2,3-Dichloro-N-[5-(4-pyridinyl)-3-(3-pyridinylmethoxy)-2-pyrazinyl]benzenesulphonaminde], the melting point is 210 °C (dec.).

For the compound `COc1nc(CO)cnc1NS(=O)(=O)c1cccc(Cl)c1Cl` [Example 138], the melting point lay in the range of 160 to 161 °C.

As for `C=CCOc1cnc(NS(=O)(=O)c2cccc(Cl)c2Cl)c(OC)n1` [Example 139, N-(5-Allyloxy-3-methoxy-2-pyrazinyl)-2,3-dichlorobenzenesulphonamide], the melting point was in the range of 120 to 121 °C.

`COc1nc(COc2cnccn2)cnc1NS(=O)(=O)c1cccc(Cl)c1Cl` [Example 140, 2,3-Dichloro-N-{3-methoxy-5-[(pyrazinyloxy)methyl]-2-pyrazinyl}benzenesulphonamide]: the melting point was 155 °C (dec.).

Turning to `O=S(=O)(Nc1ncc(Cl)nc1OCc1cncc(Br)c1)c1cccc(Cl)c1Cl` [Example 142, N-{3-[(5-Bromo-3-pyridinyl)methoxy]-5-chloro-2-pyrazinyl}-2,3-dichlorobenzenesulphonamide], the melting point was 199 to 201 °C.

In turn, `O=S(=O)(Nc1ncc(Cl)nc1OCc1cccc(CO)n1)c1cccc(Cl)c1Cl` [Example 143, 2,3-Dichloro-N-[5-chloro-3-{[6-(hydroxymethyl)-2-pyridinyl]methoxy}-2-pyrazinyl]benzenesulphonamide] registered a melting point of 220 °C.

Compound `Cc1nc(COc2nc(Cl)cnc2NS(=O)(=O)c2cccc(Cl)c2Cl)co1` [Example 144, 2,3-Dichloro-N-{5-chloro-3-[(2-methyl-4-oxazolyl)methoxy]-2-pyrazinyl}benzenesulphonamide] registered a melting point of 172 to 173 °C.

For `CCOc1cnc(NS(=O)(=O)c2cccc(Cl)c2Cl)c(OC)n1` [Example 166, 2,3-Dichloro-N-(5-ethoxy-3-methoxy-2-pyrazinyl)benzenesulphonamide], the melting point was in the range of 96 to 97 °C.

Take `COc1nc(-n2cncn2)cnc1NS(=O)(=O)c1cccc(Cl)c1Cl` [Example 167, 2,3-Dichloro-N-[3-methoxy-5-([1,2,4]-1-triazolyl)-2-pyrazinyl]benzenesulphonamide]: the melting point lay in the range of 248 to 249 °C.
